# From ChEMBL document CHEMBL1201862, “PubChem BioAssay data set” (2004)
#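 Growth conditions: 96-well plates. Treatment: test compound, 48 hours, 5 concentrations. Analysis: linear interpolation between bracketing concentrations; unreached endpoints set to highest concentration. GI50 = concentration required for 50% inhibition of growth.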 Calls of active or inactive are those of the source. Rule as the data show it: active = GI50 up to about 1.1 µM and inactive = higher.
# Key:
# Assay in all cases: growth of human tumour cells (NCI), 48 h
# HCT-116 = tested on: HCT-116
# HOP-92 = tested on: HOP-92
# HT-29 = tested on: HT-29
# LXFL 529 = tested on: LXFL 529
# NCI-H460 = tested on: NCI-H460
# OVCAR-8 = tested on: OVCAR-8
# RPMI-8226 = tested on: RPMI-8226
# RXF 393 = tested on: RXF 393
# SF-539 = tested on: SF-539
# SK-MEL-28 = tested on: SK-MEL-28
# SK-OV-3 = tested on: SK-OV-3
# UO-31 = tested on: UO-31
# ACHN = tested on: ACHN
# SN12C = tested on: SN12C
# SNB-19 = tested on: SNB-19
# HCT-15 = tested on: HCT-15
# BT-549 = tested on: BT-549
# DU-145 = tested on: DU-145
# MDA-MB-435 = tested on: MDA-MB-435
# NCI/ADR-RES = tested on: NCI/ADR-RES
SMILES,GI50 (HCT-116),GI50 (HOP-92),GI50 (HT-29),GI50 (LXFL 529),GI50 (NCI-H460),GI50 (OVCAR-8),GI50 (RPMI-8226),GI50 (RXF 393),GI50 (SF-539),GI50 (SK-MEL-28),GI50 (SK-OV-3),GI50 (UO-31),GI50 (ACHN),GI50 (SN12C),GI50 (SNB-19),GI50 (HCT-15),GI50 (BT-549),GI50 (DU-145),GI50 (MDA-MB-435),GI50 (NCI/ADR-RES)
CCN(CC)C(=O)C/C(C)=N/NC(=O)c1ccncc1,> 100 µM (inactive),> 100 µM (inactive),> 100 µM (inactive),> 100 µM (inactive),> 100 µM (inactive),> 100 µM (inactive),> 100 µM (inactive),> 100 µM (inactive),> 100 µM (inactive),> 100 µM (inactive),> 100 µM (inactive),> 100 µM (inactive),,,,,,,,
CCc1cc(C)cc2[n+]1CC=C2C.[O-][Cl+3]([O-])([O-])[O-],,8.63 µM (inactive),> 100 µM (inactive),80.5 µM (inactive),> 100 µM (inactive),> 100 µM (inactive),,27.3 µM (inactive),> 100 µM (inactive),> 100 µM (inactive),,> 100 µM (inactive),> 100 µM (inactive),> 100 µM (inactive),> 100 µM (inactive),,,,,
O=C1CC(c2ccccc2)NCN1 (stereo unspecified),> 100 µM (inactive),,> 100 µM (inactive),> 100 µM (inactive),,> 100 µM (inactive),> 100 µM (inactive),> 100 µM (inactive),,> 100 µM (inactive),> 100 µM (inactive),> 100 µM (inactive),> 100 µM (inactive),> 100 µM (inactive),> 100 µM (inactive),> 100 µM,,,,
Cc1ccc(NC(=O)C2C(=O)N(c3ccc(C)c(C)c3)C(=O)C2N=N)cc1C (stereo unspecified),> 100 µM (inactive),47.9 µM (inactive),> 100 µM (inactive),> 100 µM (inactive),89.7 µM (inactive),99.5 µM (inactive),,> 100 µM (inactive),> 100 µM (inactive),> 100 µM (inactive),> 100 µM (inactive),> 100 µM (inactive),90.4 µM (inactive),> 100 µM (inactive),> 100 µM (inactive),74.6 µM,,,,
COc1ccc2c3c([nH]c2c1[N+](=O)[O-])C(C)N(C)CC3 (stereo unspecified),> 100 µM (inactive),34 µM (inactive),18.9 µM (inactive),69 µM (inactive),> 100 µM (inactive),> 100 µM (inactive),77.4 µM (inactive),,> 100 µM (inactive),> 100 µM (inactive),> 100 µM (inactive),76.2 µM (inactive),> 100 µM (inactive),> 100 µM (inactive),> 100 µM (inactive),80.4 µM,,,,
O=C1[C@H](Cl)[C@H]2c3cc4ccccc4nc3Oc3ccccc3N12,17.2 µM (inactive),,69.8 µM (inactive),34 µM (inactive),53.7 µM (inactive),51.3 µM (inactive),22.6 µM (inactive),,,33 µM (inactive),45.5 µM (inactive),14.9 µM (inactive),28.4 µM (inactive),43.4 µM (inactive),46.8 µM (inactive),43 µM,,,,
Cc1nc(C(=O)O)c2ccccc2n1,> 100 µM (inactive),> 100 µM (inactive),> 100 µM (inactive),> 100 µM (inactive),> 100 µM (inactive),> 100 µM (inactive),> 100 µM (inactive),> 100 µM (inactive),> 100 µM (inactive),> 100 µM (inactive),> 100 µM (inactive),> 100 µM (inactive),> 100 µM (inactive),> 100 µM (inactive),> 100 µM (inactive),,,,,
COc1nc(NC2OCC(OC(C)=O)C(OC(C)=O)C2OC(C)=O)c(-c2csc(N)n2)c(=O)n1C (stereo unspecified),> 100 µM (inactive),> 100 µM (inactive),> 100 µM (inactive),> 100 µM (inactive),> 100 µM (inactive),> 100 µM (inactive),> 100 µM (inactive),,> 100 µM (inactive),> 100 µM (inactive),> 100 µM (inactive),> 100 µM (inactive),> 100 µM (inactive),> 100 µM (inactive),> 100 µM (inactive),> 100 µM,,,,
Cn1c(=O)c2c(nc3n(CCCCl)c(=O)ccn23)n(C)c1=O,> 100 µM (inactive),> 100 µM (inactive),> 100 µM (inactive),,> 100 µM (inactive),> 100 µM (inactive),> 100 µM (inactive),> 100 µM (inactive),> 100 µM (inactive),> 100 µM (inactive),> 100 µM (inactive),> 100 µM (inactive),> 100 µM (inactive),> 100 µM (inactive),> 100 µM (inactive),> 100 µM,> 100 µM (inactive),> 100 µM (inactive),> 100 µM (inactive),> 100 µM (inactive)
Cc1c(-c2ccccc2)[nH]c2ccc(Cl)cc2c1=O,17.6 µM (inactive),20.4 µM (inactive),40.8 µM (inactive),,0.314 µM (active),22.3 µM (inactive),15.2 µM (inactive),20 µM (inactive),22.2 µM (inactive),40.6 µM (inactive),21.7 µM (inactive),0.252 µM (active),29 µM (inactive),> 100 µM (inactive),> 100 µM (inactive),28.7 µM,62.2 µM (inactive),70 µM (inactive),16.4 µM (inactive),29.5 µM (inactive)
O=C(O)c1c2c(c(C(=O)O)c3ccccc13)-c1ccccc1-2,78.9 µM (inactive),23.3 µM (inactive),47.4 µM (inactive),39.8 µM (inactive),,39.9 µM (inactive),40.2 µM (inactive),21.9 µM (inactive),28.7 µM (inactive),20.3 µM (inactive),27.8 µM (inactive),28.1 µM (inactive),30.8 µM (inactive),35.1 µM (inactive),36.6 µM (inactive),,,,,
COC(=O)C1Cc2c([nH]c3ccccc23)-c2[nH]c3ccccc3c2CC(NC(C)=O)C(=O)NCC(=O)NCC(=O)N1 (stereo unspecified),> 100 µM (inactive),> 100 µM (inactive),> 100 µM (inactive),,> 100 µM (inactive),> 100 µM (inactive),> 100 µM (inactive),> 100 µM (inactive),> 100 µM (inactive),> 100 µM (inactive),> 100 µM (inactive),> 100 µM (inactive),> 100 µM (inactive),> 100 µM (inactive),> 100 µM (inactive),> 100 µM,> 100 µM (inactive),> 100 µM (inactive),> 100 µM (inactive),> 100 µM (inactive)
COC(=O)C1=C(O)C(C(=O)OC)[C@]2(O)[C@H](C(=O)OC)[C@H]1C[C@@H](c1ccc(Cl)cc1Cl)[C@H]2C(=O)OC (stereo partly specified),6.3 µM (inactive),7.96 µM (inactive),13.2 µM (inactive),,5.64 µM (inactive),4.81 µM (inactive),1.75 µM (inactive),7.76 µM (inactive),2.84 µM (inactive),12.4 µM (inactive),13.2 µM (inactive),8.97 µM (inactive),11 µM (inactive),3.28 µM (inactive),6.98 µM (inactive),4.91 µM,6.31 µM (inactive),6.68 µM (inactive),4.09 µM (inactive),3.83 µM (inactive)
O=C1OC2(c3ccccc31)c1cc(I)c(O)c(I)c1Oc1c2cc(I)c(O)c1I [ERYTHROSINE],72.4 µM (inactive),> 100 µM (inactive),> 100 µM (inactive),,> 100 µM (inactive),> 100 µM (inactive),> 100 µM (inactive),5.79 µM (inactive),> 100 µM (inactive),> 100 µM (inactive),> 100 µM (inactive),> 100 µM (inactive),96.8 µM (inactive),> 100 µM (inactive),> 100 µM (inactive),31.3 µM,45.8 µM (inactive),> 100 µM (inactive),> 100 µM (inactive),> 100 µM (inactive)
CC(=O)O[C@H]1CC[C@H]2[C@@H]3CCC4C(C)=NNC(=O)C4[C@H]3CC[C@]12C (stereo partly specified),> 73.5 µM (inactive),37.9 µM (inactive),> 100 µM (inactive),,> 100 µM (inactive),38 µM (inactive),> 100 µM (inactive),56.6 µM (inactive),65.9 µM (inactive),> 100 µM (inactive),> 95.1 µM (inactive),> 100 µM (inactive),57.5 µM (inactive),95.5 µM (inactive),33.5 µM (inactive),> 100 µM,> 45.3 µM (inactive),> 75.5 µM (inactive),> 100 µM (inactive),45.4 µM (inactive)
N#Cc1cc2c(cc1Cl)Sc1nnc(Nc3ccccc3)n1S2(=O)=O,2.04 µM (inactive),0.798 µM (active),2.12 µM (inactive),,2.71 µM (inactive),2 µM (inactive),0.692 µM (active),1.73 µM (inactive),2.07 µM (inactive),2.26 µM (inactive),5.04 µM (inactive),1.78 µM (inactive),1.74 µM (inactive),1.71 µM (inactive),2.3 µM (inactive),2.08 µM,2.47 µM (inactive),2.01 µM (inactive),2.08 µM (inactive),1.78 µM (inactive)
O=C(CSc1nnc[nH]1)C[P+](c1ccccc1)(c1ccccc1)c1ccccc1,,22.9 µM (inactive),,> 100 µM (inactive),94.4 µM (inactive),> 100 µM (inactive),> 10 µM (inactive),61.4 µM (inactive),> 100 µM (inactive),> 100 µM (inactive),> 100 µM (inactive),> 100 µM (inactive),> 100 µM (inactive),> 100 µM (inactive),> 100 µM (inactive),> 100 µM,,,,
